Reference: the NIST ThermoML archive (doi:10.1016/j.jct.2015.08.014)
± gives the expanded uncertainty stated by the source.

Assay: xn = mol fraction of the nth substance listed
Conditions: 298.15 K, 100 kPa, Liquid, Alternating current cell with electrodes

Structure (SMILES): CCCC[N+]1(C)CCCC1.N#CN=C=[N-] [1-butyl-1-methylpyrrolidinium dicyanamide] + O=C1CCCO1
- electrical conductivity (Frequency=0.005 MHz, x1 = 0.3029): 2.54 ± 0.026 S/m
- electrical conductivity (Frequency=0.005 MHz, x1 = 0.3845): 2.36 ± 0.024 S/m
- electrical conductivity (Frequency=0.005 MHz, x1 = 0.4985): 2.08 ± 0.021 S/m
- electrical conductivity (Frequency=0.005 MHz, x1 = 0.6954): 1.68 ± 0.017 S/m
- electrical conductivity (Frequency=0.005 MHz, x1 = 0.9013): 1.39 ± 0.014 S/m
- electrical conductivity (Frequency=0.005 MHz, x1 = 1): 1.317 ± 0.013 S/m
- electrical conductivity (Frequency=0.005454 MHz, x1 = 0.0463): 1.47 ± 0.026 S/m
- electrical conductivity (Frequency=0.005454 MHz, x1 = 0.0987): 2.21 ± 0.027 S/m
- electrical conductivity (Frequency=0.005454 MHz, x1 = 0.1449): 2.51 ± 0.026 S/m
- electrical conductivity (Frequency=0.005454 MHz, x1 = 0.1859): 2.67 ± 0.027 S/m
- electrical conductivity (Frequency=0.005454 MHz, x1 = 0.2493): 2.613 ± 0.026 S/m
- electrical conductivity (Frequency=0.005454 MHz, x1 = 0.3029): 2.54 ± 0.026 S/m
- electrical conductivity (Frequency=0.005454 MHz, x1 = 0.3845): 2.36 ± 0.024 S/m
- electrical conductivity (Frequency=0.005454 MHz, x1 = 0.4985): 2.08 ± 0.021 S/m
- electrical conductivity (Frequency=0.005454 MHz, x1 = 0.6954): 1.68 ± 0.017 S/m
- electrical conductivity (Frequency=0.005454 MHz, x1 = 0.9013): 1.39 ± 0.014 S/m
- electrical conductivity (Frequency=0.005454 MHz, x1 = 1): 1.317 ± 0.013 S/m
- electrical conductivity (Frequency=0.006 MHz, x1 = 0.0463): 1.47 ± 0.026 S/m
- electrical conductivity (Frequency=0.006 MHz, x1 = 0.0987): 2.21 ± 0.027 S/m
- electrical conductivity (Frequency=0.006 MHz, x1 = 0.1449): 2.51 ± 0.026 S/m
- electrical conductivity (Frequency=0.006 MHz, x1 = 0.1859): 2.67 ± 0.027 S/m
- electrical conductivity (Frequency=0.006 MHz, x1 = 0.2493): 2.613 ± 0.026 S/m
- electrical conductivity (Frequency=0.006 MHz, x1 = 0.3029): 2.54 ± 0.026 S/m
- electrical conductivity (Frequency=0.006 MHz, x1 = 0.3845): 2.36 ± 0.024 S/m
- electrical conductivity (Frequency=0.006 MHz, x1 = 0.4985): 2.08 ± 0.021 S/m
- electrical conductivity (Frequency=0.006 MHz, x1 = 0.6954): 1.68 ± 0.017 S/m
- electrical conductivity (Frequency=0.006 MHz, x1 = 0.9013): 1.39 ± 0.014 S/m
- electrical conductivity (Frequency=0.006 MHz, x1 = 1): 1.317 ± 0.013 S/m
- electrical conductivity (Frequency=0.00652174 MHz, x1 = 0.0463): 1.47 ± 0.026 S/m
- electrical conductivity (Frequency=0.00652174 MHz, x1 = 0.0987): 2.22 ± 0.027 S/m
- electrical conductivity (Frequency=0.00652174 MHz, x1 = 0.1449): 2.51 ± 0.026 S/m
- electrical conductivity (Frequency=0.00652174 MHz, x1 = 0.1859): 2.67 ± 0.027 S/m
- electrical conductivity (Frequency=0.00652174 MHz, x1 = 0.2493): 2.613 ± 0.026 S/m
- electrical conductivity (Frequency=0.00652174 MHz, x1 = 0.3029): 2.54 ± 0.026 S/m
- electrical conductivity (Frequency=0.00652174 MHz, x1 = 0.3845): 2.36 ± 0.024 S/m
- electrical conductivity (Frequency=0.00652174 MHz, x1 = 0.4985): 2.08 ± 0.021 S/m
- electrical conductivity (Frequency=0.00652174 MHz, x1 = 0.6954): 1.68 ± 0.017 S/m
- electrical conductivity (Frequency=0.00652174 MHz, x1 = 0.9013): 1.39 ± 0.014 S/m
- electrical conductivity (Frequency=0.00652174 MHz, x1 = 1): 1.317 ± 0.013 S/m
- electrical conductivity (Frequency=0.00694444 MHz, x1 = 0.0463): 1.47 ± 0.026 S/m
- electrical conductivity (Frequency=0.00694444 MHz, x1 = 0.0987): 2.22 ± 0.027 S/m
- electrical conductivity (Frequency=0.00694444 MHz, x1 = 0.1449): 2.51 ± 0.026 S/m
- electrical conductivity (Frequency=0.00694444 MHz, x1 = 0.1859): 2.67 ± 0.027 S/m
- electrical conductivity (Frequency=0.00694444 MHz, x1 = 0.2493): 2.613 ± 0.026 S/m
- electrical conductivity (Frequency=0.00694444 MHz, x1 = 0.3029): 2.54 ± 0.026 S/m
- electrical conductivity (Frequency=0.00694444 MHz, x1 = 0.3845): 2.36 ± 0.024 S/m
- electrical conductivity (Frequency=0.00694444 MHz, x1 = 0.4985): 2.08 ± 0.021 S/m
- electrical conductivity (Frequency=0.00694444 MHz, x1 = 0.6954): 1.68 ± 0.017 S/m
- electrical conductivity (Frequency=0.00694444 MHz, x1 = 0.9013): 1.39 ± 0.014 S/m
- electrical conductivity (Frequency=0.00694444 MHz, x1 = 1): 1.317 ± 0.013 S/m
- electrical conductivity (Frequency=0.0075 MHz, x1 = 0.0463): 1.47 ± 0.026 S/m
- electrical conductivity (Frequency=0.0075 MHz, x1 = 0.0987): 2.22 ± 0.027 S/m
- electrical conductivity (Frequency=0.0075 MHz, x1 = 0.1449): 2.51 ± 0.026 S/m
- electrical conductivity (Frequency=0.0075 MHz, x1 = 0.1859): 2.67 ± 0.027 S/m
- electrical conductivity (Frequency=0.0075 MHz, x1 = 0.2493): 2.613 ± 0.026 S/m
- electrical conductivity (Frequency=0.0075 MHz, x1 = 0.3029): 2.54 ± 0.026 S/m
- electrical conductivity (Frequency=0.0075 MHz, x1 = 0.3845): 2.36 ± 0.024 S/m
- electrical conductivity (Frequency=0.0075 MHz, x1 = 0.4985): 2.08 ± 0.021 S/m
- electrical conductivity (Frequency=0.0075 MHz, x1 = 0.6954): 1.68 ± 0.017 S/m
- electrical conductivity (Frequency=0.0075 MHz, x1 = 0.9013): 1.39 ± 0.014 S/m
- electrical conductivity (Frequency=0.0075 MHz, x1 = 1): 1.318 ± 0.013 S/m
- electrical conductivity (Frequency=0.008 MHz, x1 = 0.0463): 1.47 ± 0.026 S/m
- electrical conductivity (Frequency=0.008 MHz, x1 = 0.0987): 2.22 ± 0.027 S/m
- electrical conductivity (Frequency=0.008 MHz, x1 = 0.1449): 2.51 ± 0.026 S/m
- electrical conductivity (Frequency=0.008 MHz, x1 = 0.1859): 2.67 ± 0.027 S/m
- electrical conductivity (Frequency=0.008 MHz, x1 = 0.2493): 2.613 ± 0.026 S/m
- electrical conductivity (Frequency=0.008 MHz, x1 = 0.3029): 2.54 ± 0.026 S/m
- electrical conductivity (Frequency=0.008 MHz, x1 = 0.3845): 2.36 ± 0.024 S/m
- electrical conductivity (Frequency=0.008 MHz, x1 = 0.4985): 2.08 ± 0.021 S/m
- electrical conductivity (Frequency=0.008 MHz, x1 = 0.6954): 1.68 ± 0.017 S/m
- electrical conductivity (Frequency=0.008 MHz, x1 = 0.9013): 1.39 ± 0.014 S/m
- electrical conductivity (Frequency=0.008 MHz, x1 = 1): 1.318 ± 0.013 S/m
- electrical conductivity (Frequency=0.00857143 MHz, x1 = 0.0463): 1.48 ± 0.026 S/m
- electrical conductivity (Frequency=0.00857143 MHz, x1 = 0.0987): 2.22 ± 0.027 S/m
- electrical conductivity (Frequency=0.00857143 MHz, x1 = 0.1449): 2.51 ± 0.026 S/m
- electrical conductivity (Frequency=0.00857143 MHz, x1 = 0.1859): 2.67 ± 0.027 S/m
- electrical conductivity (Frequency=0.00857143 MHz, x1 = 0.2493): 2.613 ± 0.026 S/m
- electrical conductivity (Frequency=0.00857143 MHz, x1 = 0.3029): 2.54 ± 0.026 S/m
- electrical conductivity (Frequency=0.00857143 MHz, x1 = 0.3845): 2.36 ± 0.024 S/m
- electrical conductivity (Frequency=0.00857143 MHz, x1 = 0.4985): 2.08 ± 0.021 S/m
- electrical conductivity (Frequency=0.00857143 MHz, x1 = 0.6954): 1.68 ± 0.017 S/m
- electrical conductivity (Frequency=0.00857143 MHz, x1 = 0.9013): 1.39 ± 0.014 S/m
- electrical conductivity (Frequency=0.00857143 MHz, x1 = 1): 1.318 ± 0.013 S/m
- electrical conductivity (Frequency=0.00892857 MHz, x1 = 0.0463): 1.48 ± 0.026 S/m
- electrical conductivity (Frequency=0.00892857 MHz, x1 = 0.0987): 2.22 ± 0.027 S/m
- electrical conductivity (Frequency=0.00892857 MHz, x1 = 0.1449): 2.51 ± 0.026 S/m
- electrical conductivity (Frequency=0.00892857 MHz, x1 = 0.1859): 2.67 ± 0.027 S/m
- electrical conductivity (Frequency=0.00892857 MHz, x1 = 0.2493): 2.614 ± 0.026 S/m
- electrical conductivity (Frequency=0.00892857 MHz, x1 = 0.3029): 2.54 ± 0.026 S/m
- electrical conductivity (Frequency=0.00892857 MHz, x1 = 0.3845): 2.36 ± 0.024 S/m
- electrical conductivity (Frequency=0.00892857 MHz, x1 = 0.4985): 2.08 ± 0.021 S/m
- electrical conductivity (Frequency=0.00892857 MHz, x1 = 0.6954): 1.68 ± 0.017 S/m
- electrical conductivity (Frequency=0.00892857 MHz, x1 = 0.9013): 1.39 ± 0.014 S/m
- electrical conductivity (Frequency=0.00892857 MHz, x1 = 1): 1.318 ± 0.013 S/m
- electrical conductivity (Frequency=0.00961538 MHz, x1 = 0.0463): 1.48 ± 0.026 S/m
- electrical conductivity (Frequency=0.00961538 MHz, x1 = 0.0987): 2.22 ± 0.027 S/m
- electrical conductivity (Frequency=0.00961538 MHz, x1 = 0.1449): 2.51 ± 0.026 S/m
- electrical conductivity (Frequency=0.00961538 MHz, x1 = 0.1859): 2.68 ± 0.027 S/m
- electrical conductivity (Frequency=0.00961538 MHz, x1 = 0.2493): 2.614 ± 0.026 S/m
- electrical conductivity (Frequency=0.00961538 MHz, x1 = 0.3029): 2.54 ± 0.026 S/m
- electrical conductivity (Frequency=0.00961538 MHz, x1 = 0.3845): 2.36 ± 0.024 S/m
- electrical conductivity (Frequency=0.00961538 MHz, x1 = 0.4985): 2.08 ± 0.021 S/m
- electrical conductivity (Frequency=0.00961538 MHz, x1 = 0.6954): 1.68 ± 0.017 S/m
- electrical conductivity (Frequency=0.00961538 MHz, x1 = 0.9013): 1.39 ± 0.014 S/m
- electrical conductivity (Frequency=0.00961538 MHz, x1 = 1): 1.318 ± 0.013 S/m
- electrical conductivity (Frequency=0.01 MHz, x1 = 0.0463): 1.48 ± 0.026 S/m
- electrical conductivity (Frequency=0.01 MHz, x1 = 0.0987): 2.22 ± 0.027 S/m
